Among the data in PubChem BioAssay (NCI) are TGI and GI50 values, retold here.

The TGI is the concentration giving total growth inhibition. A word on the GI50: it is the concentration at which growth is held to half of that of the control.

What all share (assay): DTP human tumour cell line panel, 48 h
In assay [1] the test system is NCI-H23 lung.
Assay [2] deals with HOP-92 NSCLC.
The subject of assay [3] is KM12 colon.
Assay [4] relates to CCRF-CEM leukemia.
The subject of assay [5] is SK-OV-3 ovarian.
For assay [6], the system named is SNB-75 CNS.
Assay [7] has as its system NCI/ADR-RES ovarian.
Assay [8] has as its system SN12C renal.
Assay [9] has as its system MDA-MB-231 breast.
For assay [10], the system named is PC-3 prostate.

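Method: 48-hour compound exposure of cells in 96-well plates, five concentrations, linear interpolation of endpoints. GI50 is the concentration that inhibits growth by half. TGI: concentration producing complete growth inhibition.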

Consider `OCC1OC(c2scc3c(=S)nc[nH]c23)C(O)C1O` (stereo unspecified), for which the TGI in assay [1] was 92.6 µM; in assay [2] it was 6.92 µM; in [3], over 100 µM; in assay [4], over 100 µM; in assay [5], 35.4 µM; in assay [6], 30.5 µM. In addition, the TGI was over 66.3 µM in assay [7], over 100 µM in assay [8], over 69.2 µM in [9] and over 84.9 µM in assay [10].

Consider `CCOc1ccc2nc(NC(=O)C(=O)C(C(=O)c3ccccc3-c3ccccc3)C3OC(=O)c4ccccc43)sc2c1` (stereo unspecified), for which the TGI was 47.4 µM in assay [1]; 46.8 µM in [2]; 32.5 µM in assay [3]; 64.2 µM in [4]; over 72.6 µM in [5]; 61.6 µM in [6]. The TGI was found to be 37.9 µM in assay [7], 51.9 µM in assay [8], 70.8 µM in [9] and 41.7 µM in assay [10].

For the compound `CCOC(=O)c1cnc(-n2[nH]c(C)c(CCO)c2=O)[nH]c1=O`, the TGI in [1], in [2], in assay [3], in assay [4], in assay [5] and in assay [6] was over 100 µM each time. The TGI in assay [7], in assay [8], in assay [9] and in assay [10] was over 100 µM each time.

Consider `OCCOc1ccc(-c2cc(-c3ccccn3)nc(-c3ccccn3)c2)cc1`, for which the TGI was over 100 µM in assay [1]; over 100 µM in assay [2]; over 100 µM in assay [3]; 40.4 µM in assay [4]; 2.17 µM in assay [5]; 26.1 µM in assay [6]. The TGI was 2.4 µM in assay [7], over 100 µM in assay [8], over 40.2 µM in [9] and over 100 µM in assay [10].

As for `O=c1c2ccccc2oc2nc3n(c(=O)c12)CCCS3`, the TGI in assay [1], in assay [2], in assay [3], in [4], in assay [5] and in [6] was over 100 µM in each case. Also, the TGI in [7], in assay [8], in [9] and in assay [10] was over 100 µM each time.

`Cc1ccc(C)n1-c1ccccc1C1SCCCS1`: the TGI in assay [1], in assay [2], in assay [3], in assay [4], in assay [5] and in assay [6] was over 100 µM in each case. The TGI in assay [7], in assay [8], in [9] and in assay [10] was over 100 µM in each case.

As to `O=C(Cc1ccccc1)NCCc1ccc(O)c(O)c1`, the TGI in assay [1] was over 100 µM; in [2], over 100 µM; in [3], over 100 µM; in [4], 24.3 µM; in [5] it was over 100 µM; in assay [6] it was over 100 µM. Moreover, the TGI in assay [7], in assay [8], in assay [9] and in [10] was over 100 µM each time.

In the case of `O=C(O)[C@H]1[C@@H](C2CCCCC2)O[C@@H](C2CCCCC2)O[C@H]1C(F)(F)F`, the concentration for total growth inhibition (TGI) in assay [1] is 42.6 µM; in [2], 61.3 µM; in assay [3] it was 46.4 µM; in [4], 47.7 µM; in [5], over 100 µM; in assay [6], 38.2 µM. Moreover, the TGI in assay [7] is over 100 µM; in assay [8], 38.5 µM; in assay [9], 36.2 µM; in [10], 32.1 µM.

Turning to `CCCC(=O)O`, the TGI was over 18700 µM in assay [1]; 14200 µM in assay [2]; over 18700 µM in [3]; over 18700 µM in [4]; over 18700 µM in [5]; over 18700 µM in assay [6]. Besides, the TGI is over 18700 µM in [7], over 18700 µM in assay [8], 18000 µM in assay [9] and over 18700 µM in assay [10]. Also, the GI50 in assay [7] was 1460 µM.

Regarding `O=C1Oc2ccccc2C(=O)/C1=C/N1C(=O)N/C(=C\c2ccccc2O)C1=O`, the TGI in assay [1] is over 100 µM; in [2], over 91 µM; in assay [3] it was over 100 µM; in assay [4], over 100 µM; in assay [5], over 100 µM; in assay [6], over 100 µM. Besides, the concentration for total growth inhibition (TGI) in assay [7], in assay [8], in [9] and in assay [10] was over 100 µM each time.

Consider `O=C1C2CCCCC2C(=O)N1n1c(Cc2ccc(Cl)cc2)n[nH]c1=O` (stereo unspecified), for which the TGI in [1], in assay [2], in assay [3], in assay [4], in [5] and in assay [6] was over 100 µM throughout. In addition, the TGI in assay [7], in assay [8], in assay [9] and in assay [10] was over 100 µM in each case.

Take `COC(=O)c1c2c(cc3c1CC1(Cc4ccccc4C1=O)C3)CCC2` (stereo unspecified): the TGI was over 100 µM in assay [1]; over 100 µM in assay [2]; 61.5 µM in [3]; over 100 µM in assay [4]; over 100 µM in [5]; over 100 µM in [6]. Moreover, the TGI in [7] was 79.3 µM; in assay [8], over 100 µM; in [9], over 100 µM; in assay [10], over 100 µM.

As to `C=C(C)[C@@]1(O)O[C@H]2C[C@@]3(C)OC(=CC3=O)/C(C)=C\[C@@H]3OC(=O)[C@@]1(C)[C@H]32`, the TGI was over 31.6 µM in [1]; 41.3 µM in assay [2]; 32.5 µM in assay [3]; 24.1 µM in assay [4]; over 100 µM in assay [5]; 68.3 µM in [6]. Also, the TGI is over 100 µM in assay [7], 34.9 µM in assay [8], 43.9 µM in [9] and 78.4 µM in assay [10].
